Laboratory results published in paper PMC8509773, “3-Pyridinylidene Derivatives of Chemically Modified Lupane and Ursane Triterpenes as Promising Anticancer Agents by Targeting Apoptosis” (International Journal of Molecular Sciences, 2021).

Assays:
Test in all cases: NCI-60 SRB screening (one-dose and five-dose)
Format in all cases: cell-based, human
Details in all cases: 48 h
HCC-2998 = test system: HCC-2998
Procedure: (§1) The compounds were added at a single concentration and the cell cultures were incubated for 48 h. The end point determinations were made with a protein binding dye, sulforhodamine B (SRB). […] The percentage of growth was evaluated spectrophotometrically versus controls not treated with test agents after 48-h exposure and using SRB protein assay to estimate cell viability or growth. […] Furthermore, mean graph midpoints (MG_MID) were calculated for each of the parameters, giving an average activity parameter over all cell lines for the tested compound. For the MG_MID calculation, insensitive cell lines were included with the highest concentration tested.

RXF 393 = test system: RXF 393
Procedure: as §1

MDA-MB-231/ATCC = test system: MDA-MB-231/ATCC
Procedure: as §1

UACC-257 = test system: UACC-257
Procedure: as §1

CCRF-CEM = test system: CCRF-CEM
Procedure: as §1

OVCAR-3 = test system: OVCAR-3
Procedure: as §1

DU-145 = test system: DU-145
Procedure: as §1

HS 578T = test system: HS 578T
Procedure: as §1

RPMI-8226 = test system: RPMI-8226
Procedure: as §1

LOX IMVI = test system: LOX IMVI
Procedure: as §1

UO-31 = test system: UO-31
Procedure: as §1

SK-MEL-5 = test system: SK-MEL-5
Procedure: as §1

SNB-75 = test system: SNB-75
Procedure: as §1

SN12C = test system: SN12C
Procedure: as §1

786-0 = test system: 786-0
Procedure: as §1

MOLT-4 = test system: MOLT-4
Procedure: as §1

SNB-19 = test system: SNB-19
Procedure: as §1

T-47D = test system: T-47D
Procedure: as §1

SK-MEL-28 = test system: SK-MEL-28
Procedure: as §1

TK-10 = test system: TK-10
Procedure: as §1

NCI-H23 = test system: NCI-H23
Procedure: as §1

UACC-62 = test system: UACC-62
Procedure: as §1

SF-295 = test system: SF-295
Procedure: as §1

MCF7 = test system: MCF7
Procedure: as §1

M14 = test system: M14
Procedure: as §1

HL-60(TB) = test system: HL-60(TB)
Procedure: as §1

MALME-3M = test system: MALME-3M
Procedure: as §1

PC-3 = test system: PC-3
Procedure: as §1

SW-620 = test system: SW-620
Procedure: as §1

A549/ATCC = test system: A549/ATCC
Procedure: as §1

NCI-H226 = test system: NCI-H226
Procedure: as §1

BT-549 = test system: BT-549
Procedure: as §1

HOP-92 = test system: HOP-92
Procedure: as §1

HOP-62 = test system: HOP-62
Procedure: as §1

NCI-H522 = test system: NCI-H522
Procedure: as §1

OVCAR-5 = test system: OVCAR-5
Procedure: as §1

A498 = test system: A498
Procedure: as §1

NCI/ADR-RES = test system: NCI/ADR-RES
Procedure: as §1

OVCAR-4 = test system: OVCAR-4
Procedure: as §1

NCI-H322M = test system: NCI-H322M
Procedure: as §1

[1] = Homo sapiens, five dose 0.01–100 μM

Question: What does the source list for C[C@H]1[C@@H]2[C@H]3CC[C@@H]4[C@@]5(C)C/C(=C\c6cccnc6)C(=O)C(C)(C)[C@@H]5CC[C@@]4(C)[C@]3(C)CC[C@]23CO[C@@]1(C)[C@@H](C(=O)/C=C/c1cccnc1)C3 [Compound 6, 3-Oxo-2-(3-pyridinylidene)-21-[3-(2E-pyridinyl)-prop-2-en-1-one]-20β,28-epoxy-18α,19βH-ursane]?
Answer: Growth Percent (HCC-2998; HCC-2998, 10 μM): −67.18%; GI50 (HCC-2998; Homo sapiens, HCC-2998, five dose 0.01–100 μM): 890 nM; GI50 (RXF 393; Homo sapiens, RXF 393, five dose 0.01–100 μM): 830 nM; Growth Percent (RXF 393; RXF 393, 10 μM): −91.75%; Growth Percent (MDA-MB-231/ATCC; 10 μM): −30.71%; GI50 (MDA-MB-231/ATCC; [1]): 1030 nM; GI50 (UACC-257; Homo sapiens, UACC-257, five dose 0.01–100 μM): 1670 nM; Growth Percent (UACC-257; UACC-257, 10 μM): 13.16%; Growth Percent (CCRF-CEM; 10 μM): 17.92%; GI50 (CCRF-CEM; [1]): 170 nM; GI50 (OVCAR-3; Homo sapiens, OVCAR-3, five dose 0.01–100 μM): 880 nM; Growth Percent (OVCAR-3; OVCAR-3, 10 μM): −43.66%; Growth Percent (DU-145; DU-145, 10 μM): −28.80%; GI50 (DU-145; Homo sapiens, DU-145, five dose 0.01–100 μM): 930 nM; Growth Percent (HS 578T; 10 μM): 11.24%; GI50 (HS 578T; [1]): 1440 nM; GI50 (RPMI-8226; Homo sapiens, RPMI-8226, five dose 0.01–100 μM): 160 nM; Growth Percent (RPMI-8226; RPMI-8226, 10 μM): 5.06%; Growth Percent (LOX IMVI; 10 μM): −85.19%; GI50 (LOX IMVI; [1]): 890 nM; GI50 (UO-31; Homo sapiens, UO-31, five dose 0.01–100 μM): 640 nM; Growth Percent (UO-31; UO-31, 10 μM): −97.34%; GI50 (SK-MEL-5; Homo sapiens, SK-MEL-5, five dose 0.01–100 μM): 820 nM; Growth Percent (SK-MEL-5; SK-MEL-5, 10 μM): −82.25%; GI50 (SNB-75; Homo sapiens, SNB-75, five dose 0.01–100 μM): 1020 nM; Growth Percent (SNB-75; SNB-75, 10 μM): 32.69%; Growth Percent (SN12C; 10 μM): −17.67%; GI50 (SN12C; [1]): 940 nM; Growth Percent (786-0; 786-0, 10 μM): −38.97%; GI50 (786-0; Homo sapiens, 786-0, five dose 0.01–100 μM): 920 nM; GI50 (MOLT-4; Homo sapiens, MOLT-4, five dose 0.01–100 μM): 170 nM; Growth Percent (MOLT-4; MOLT-4, 10 μM): 16.72%; GI50 (SNB-19; Homo sapiens, SNB-19, five dose 0.01–100 μM): 850 nM; Growth Percent (SNB-19; SNB-19, 10 μM): 2.48%; GI50 (T-47D; Homo sapiens, T47D, T -47D, five dose 0.01–100 μM): 1980 nM; Growth Percent (T-47D; T-47D, 10 μM): 24.61%; GI50 (SK-MEL-28; Homo sapiens, SK-MEL-28, five dose 0.01–100 μM): 940 nM; Growth Percent (SK-MEL-28; SK-MEL-28, 10 μM): −17.77%; GI50 (TK-10; Homo sapiens, TK-10, five dose 0.01–100 μM): 1830 nM; Growth Percent (TK-10; TK-10, 10 μM): −14.49%; GI50 (NCI-H23; Homo sapiens, NCI-H23, five dose 0.01–100 μM): 1040 nM; Growth Percent (NCI-H23; NCI-H23, 10 μM): −48.71%; GI50 (UACC-62; Homo sapiens, UACC-62, five dose 0.01–100 μM): 600 nM; Growth Percent (UACC-62; UACC-62, 10 μM): −25.57%; GI50 (SF-295; Homo sapiens, SF-295, five dose 0.01–100 μM): 1690 nM; Growth Percent (SF-295; SF-295, 10 μM): 6.07%; GI50 (MCF7; Homo sapiens, MCF7, five dose 0.01–100 μM): 910 nM; Growth Percent (MCF7; MCF7, 10 μM): 9.88%; GI50 (M14; Homo sapiens, M14, five dose 0.01–100 μM): 1740 nM; Growth Percent (M14; M14, 10 μM): −20.11%; Growth Percent (HL-60(TB); 10 μM): 14.49%; GI50 (HL-60(TB); [1]): 560 nM; Growth Percent (MALME-3M; 10 μM): −33.54%; GI50 (MALME-3M; [1]): 800 nM; GI50 (PC-3; Homo sapiens, PC-3, five dose 0.01–100 μM): 260 nM; Growth Percent (PC-3; PC-3, 10 μM): −3.56%; GI50 (SW-620; Homo sapiens, SW-620, five dose 0.01–100 μM): 980 nM; Growth Percent (SW-620; SW-620, 10 μM): −26.39%; Growth Percent (A549/ATCC; 10 μM): −24.64%; GI50 (A549/ATCC; [1]): 1270 nM; GI50 (NCI-H226; Homo sapiens, NCI-H226, five dose 0.01–100 μM): 1020 nM; Growth Percent (NCI-H226; NCI-H226, 10 μM): −13.51%; Growth Percent (BT-549; BT-549, 10 μM): −20.09%; GI50 (BT-549; Homo sapiens, BT-549, five dose 0.01–100 μM): 730 nM; Growth Percent (HOP-92; HOP-92, 10 μM): −19.97%; GI50 (HOP-92; Homo sapiens, HOP-92, five dose 0.01–100 μM): 820 nM; Growth Percent (HOP-62; HOP-62, 10 μM): −13.55%; GI50 (HOP-62; Homo sapiens, HOP-62, five dose 0.01–100 μM): 1560 nM; GI50 (NCI-H522; Homo sapiens, NCI-H522, five dose 0.01–100 μM): 1360 nM; Growth Percent (NCI-H522; NCI-H522, 10 μM): −34.35%; GI50 (OVCAR-5; Homo sapiens, OVCAR-5, five dose 0.01–100 μM): 1460 nM; Growth Percent (OVCAR-5; OVCAR-5, 10 μM): −4.00%; Growth Percent (A498; A498, 10 μM): −59.07%; GI50 (A498; Homo sapiens, A498, five dose 0.01–100 μM): 780 nM; Growth Percent (NCI/ADR-RES; 10 μM): 2.97%; GI50 (NCI/ADR-RES; [1]): 1700 nM; GI50 (OVCAR-4; Homo sapiens, OVCAR-4, five dose 0.01–100 μM): 1490 nM; Growth Percent (OVCAR-4; OVCAR-4, 10 μM): 18.62%; Growth Percent (NCI-H322M; 10 μM): 46.39%; GI50 (NCI-H322M; [1]): 1820 nM
